Laboratory results reported in patent publication USRE39591E1, “6-O-substituted ketolides having antibacterial activity” (Abbott Laboratories, priority 1996, dated 2007).

System: up to 32 different microorganisms
Test: in vitro antibacterial activity (MIC), agar dilution on Brain Heart Infusion (BHI) agar with Steers replicator
Format: cell-based
Conditions: unit assumed
Method: Representative compounds of the present invention were assayed in vitro for antibacterial activity as follows: Twelve petri dishes containing successive aqueous dilutions of the test compound mixed with 10 mL of sterilized Brain Heart Infusion (BHI) agar (Difco 0148-01-5) were prepared. Each plate was inoculated with 1:100 (or 1:10 for slow-growing strains, such as Micrococcus and Streptococcus) dilutions of up to 32 different microorganisms, using a Steers replicator block. The inoculated plates were incubated at 35°-37° C. for 20 to 24 hours. In addition, a control plate, using BHI agar containing no test compound, was prepared and incubated at the beginning and end of each test.
An additional plate containing a compound having known susceptibility patterns for the organisms being tested and belonging to the same antibiotic class as the test compound was also prepared and incubated as a further control, as well as to provide test-to-test comparability. Erythromycin A was used for this purpose.
After incubation, each plate was visually inspected. The minimum inhibitory concentration (MIC) was defined as the lowest concentration of drug yielding no growth, a slight haze, or sparsely isolated colonies on the inoculum spot as compared to the growth control.

[1] = Candida albicans CCH 442 (code TT)
[2] = Enterococcus faecism ATCC 8043 (code II)
[3] = Escherichia coli DC-2 (code SS)
[4] = Escherichia coli JUHL (code QQ)
[5] = Haemophilis influenzae DILL AMP R (code WW)
[6] = Micrococcus luteus ATCC 4698 (code PP)
[7] = Micrococcus luteus ATCC 9341 (code OO)
[8] = Mycobacterium smegmatis ATCC 114 (code UU)
[9] = Nocardia Asteroides ATCC9970 (code VV)
[10] = Staphylococcus aureus 1775 (code GG)
[11] = Staphylococcus aureus A5177 (code BB)
[12] = Staphylococcus aureus A-5278 (code CC)
[13] = Staphylococcus aureus ATCC 6538P (code AA)
[14] = Staphylococcus aureus CMX 553 (code FF)
[15] = Staphylococcus aureus CMX 642A (code DD)
[16] = Staphylococcus aureus NCTC10649M (code EE)
[17] = Staphylococcus epidermidis 3519 (code HH)
[18] = Streptococcus Pneumonia 5649 (code ZZA)
[19] = Streptococcus Pneumonia 5979 (code ZZ)
[20] = Streptococcus Pneumonia ATCC6303 (code XX)
[21] = Streptococcus Pneumonia GYR 1171 (code YY)
[22] = Streptococcus agalactiae CMX 508 (code KK)
[23] = Streptococcus bovis A-5169 (code JJ)
[24] = Streptococcus pyogenes 930 (code MM)
[25] = Streptococcus pyogenes EES61 (code LL)
[26] = Streptococcus pyogenes PIU 2548 (code NN)

Structure (SMILES): CC[C@H]1OC(=O)[C@H](C)C(=O)[C@H](C)[C@@H](O[C@@H]2O[C@H](C)C[C@H](N(C)C)[C@H]2O)[C@@](C)(OCC=Cc2cnc3ccccc3c2)C[C@@H](C)C(=O)[C@H](C)[C@H]2NC(=O)O[C@@]21C [Example 104, Compound of Formula (IX): L is CO, T is NH, R is —CH2CH═CH-(3-quinolyl)]
- MIC [1]: > 100 µg/mL
- MIC [2]: 0.05 µg/mL
- MIC [3]: 50 µg/mL
- MIC [4]: 50 µg/mL
- MIC (Escherichia coli SS (code RR)): 0.39 µg/mL
- MIC [5]: 2 µg/mL
- MIC [6]: 0.05 µg/mL
- MIC [7]: ≤ 0.005 µg/mL
- MIC [8]: 0.39 µg/mL
- MIC [9]: 0.01 µg/mL
- MIC [10]: > 100 µg/mL
- MIC [11]: 0.05 µg/mL
- MIC [12]: > 100 µg/mL
- MIC [13]: 0.05 µg/mL
- MIC [14]: 0.1 µg/mL
- MIC [15]: 0.05 µg/mL
- MIC [16]: 0.1 µg/mL
- MIC [17]: 0.05 µg/mL
- MIC [18]: 0.25 µg/mL
- MIC [19]: 16 µg/mL
- MIC [20]: 0.03 µg/mL
- MIC [21]: 0.03 µg/mL
- MIC [22]: 0.01 µg/mL
- MIC [23]: 0.01 µg/mL
- MIC [24]: 1.56 µg/mL
- MIC [25]: ≤ 0.005 µg/mL
- MIC [26]: 0.1 µg/mL

Structure (SMILES): CC[C@H]1OC(=O)[C@H](C)C(=O)[C@H](C)[C@@H](O[C@@H]2O[C@H](C)C[C@H](N(C)C)[C@H]2O)[C@@](C)(OCC=Cc2cnc3ccccc3c2)C[C@@H](C)C(=O)[C@H](C)[C@@H](O)[C@]1(C)O [Example 18, Compound of Formula (VIII): X is O, R is —CH2CH═CH-(3-quinolyl)]
- MIC [1]: > 100 µg/mL
- MIC [2]: 0.2 µg/mL
- MIC [3]: > 100 µg/mL
- MIC [4]: > 100 µg/mL
- MIC (Escherichia coli SS (code RR)): 0.39 µg/mL
- MIC [5]: 16 µg/mL
- MIC [6]: 0.2 µg/mL
- MIC [9]: 0.1 µg/mL
- MIC [10]: > 100 µg/mL
- MIC [11]: 0.2 µg/mL
- MIC [12]: > 100 µg/mL
- MIC [13]: 0.2 µg/mL
- MIC [14]: 0.2 µg/mL
- MIC [15]: 0.2 µg/mL
- MIC [16]: 0.2 µg/mL
- MIC [17]: 0.2 µg/mL
- MIC [18]: 0.25 µg/mL
- MIC [19]: 128 µg/mL
- MIC [20]: 0.03 µg/mL
- MIC [22]: 0.2 µg/mL
- MIC [24]: 100 µg/mL
- MIC [25]: 0.2 µg/mL
- MIC [26]: 0.1 µg/mL

Structure (SMILES): CC[C@H]1OC(=O)[C@H](C)C(=O)[C@H](C)[C@@H](O[C@@H]2O[C@H](C)C[C@H](N(C)C)[C@H]2O)[C@@](C)(OCC#Cc2ccc3cc(Cl)ccc3c2)C[C@@H](C)C(=O)[C@H](C)[C@H]2NC(=O)O[C@@]21C [Example 253, Compound of Formula (IX): L is CO, T is NH, R is —CH2—C≡C-(6-chloro-2-naphthyl)]
- MIC (organism code AA): 0.05 µg/mL
- MIC (organism code BB): 0.05 µg/mL
- MIC (organism code CC): > 100 µg/mL
- MIC (organism code DD): 0.05 µg/mL
- MIC (organism code EE): 0.1 µg/mL
- MIC (organism code FF): 0.05 µg/mL
- MIC (organism code GG): > 100 µg/mL
- MIC (organism code HH): 0.05 µg/mL
- MIC (organism code II): 0.05 µg/mL
- MIC (organism code JJ): 0.02 µg/mL
- MIC (organism code KK): 0.02 µg/mL
- MIC (organism code LL): 0.01 µg/mL
- MIC (organism code MM): 0.78 µg/mL
- MIC (organism code NN): 0.05 µg/mL
- MIC (organism code OO): 0.01 µg/mL
- MIC (organism code PP): 0.1 µg/mL
- MIC (organism code QQ): 50 µg/mL
- MIC (organism code RR): 0.3 µg/mL
- MIC (organism code SS): 50 µg/mL
- MIC (organism code TT): > 100 µg/mL
- MIC (organism code UU): 0.2 µg/mL
- MIC (organism code VV): 0.02 µg/mL
- MIC (organism code WW): 2 µg/mL
- MIC (organism code XX): 0.015 µg/mL
- MIC (organism code YY): 0.03 µg/mL
- MIC (organism code ZZ): 1 µg/mL
- MIC (organism code ZZA): 0.25 µg/mL

Structure (SMILES): C=CCOC1(C)CC(C)C(=O)C(C)C2N(CC=C)C(=O)OC2(C)C(CC)OC(=O)C(C)C(=O)C(C)C1OC1OC(C)CC(N(C)C)C1O (centres unmarked) [Example 183, Compound of Formula (IX): L is CO, T is N (CH2CH═CH2), R is —CH2CH═CH2]
- MIC [1]: > 100 µg/mL
- MIC [2]: 3.1 µg/mL
- MIC [3]: > 100 µg/mL
- MIC [4]: > 100 µg/mL
- MIC (Escherichia coli SS (code RR)): 25 µg/mL
- MIC [5]: > 128 µg/mL
- MIC [6]: 25 µg/mL
- MIC [7]: 6.2 µg/mL
- MIC [8]: > 100 µg/mL
- MIC [9]: 1.56 µg/mL
- MIC [10]: > 100 µg/mL
- MIC [11]: 25 µg/mL
- MIC [12]: > 100 µg/mL
- MIC [13]: 25 µg/mL
- MIC [14]: 25 µg/mL
- MIC [15]: 25 µg/mL
- MIC [16]: 25 µg/mL
- MIC [17]: 25 µg/mL
- MIC [18]: 2 µg/mL
- MIC [19]: > 128 µg/mL
- MIC [20]: 2 µg/mL
- MIC [21]: 2 µg/mL
- MIC [22]: 1.56 µg/mL
- MIC [23]: 0.78 µg/mL
- MIC [24]: > 100 µg/mL
- MIC [25]: 1.56 µg/mL
- MIC [26]: 3.1 µg/mL
